Results reported in the NIST ThermoML archive (doi:10.1016/j.jct.2014.01.012).

Test: xn = mol fraction of the nth substance listed
Conditions: 101 kPa, Liquid; for speed of sound: Sing-around technique in a fixed-path interferometer; for mass density: Vibrating tube method

CCCCCCn1cc[n+](C)c1.F[P-](F)(F)(F)(F)F [1-hexyl-3-methylimidazolium hexafluorophosphate] + CCCCOC(C)=O
Conditions	mass density [kg/m3]	speed of sound [m/s]
293.15 K, x1 = 0.0956	951.75	1232
293.15 K, x1 = 0.1919	1012.58	1254.6
293.15 K, x1 = 0.273	1056.82	1279.1
293.15 K, x1 = 0.3698	1103.12	1306.9
293.15 K, x1 = 0.4639	1141.87	1329.4
293.15 K, x1 = 0.5701	1179.57	1354.2
293.15 K, x1 = 0.6787	1213.07	1375.9
293.15 K, x1 = 0.7746	1239.19	1395
293.15 K, x1 = 0.8707	1262.73	1412
293.15 K, x1 = 0.9354	1277.66	1425
293.15 K, x1 = 1	1291.38	1436.9
298.15 K, x1 = 0.0956	947.32	1211.1
298.15 K, x1 = 0.1919	1008.36	1234
298.15 K, x1 = 0.273	1052.6	1258.9
298.15 K, x1 = 0.3698	1098.76	1286.7
298.15 K, x1 = 0.4639	1137.51	1309.5
298.15 K, x1 = 0.5701	1175.41	1334.8
298.15 K, x1 = 0.6787	1209.24	1357.2
298.15 K, x1 = 0.7746	1235.56	1377.6
298.15 K, x1 = 0.8707	1259.27	1395.9
298.15 K, x1 = 0.9354	1273.93	1409.2
298.15 K, x1 = 1	1287.34	1423.5
303.15 K, x1 = 0.0956	942.923	1190.1
303.15 K, x1 = 0.1919	1004.08	1212.6
303.15 K, x1 = 0.273	1048.36	1237.4
303.15 K, x1 = 0.3698	1094.3	1265.2
303.15 K, x1 = 0.4639	1133.2	1289.9
303.15 K, x1 = 0.5701	1171.25	1317.5
303.15 K, x1 = 0.6787	1205.24	1342.6
303.15 K, x1 = 0.7746	1231.69	1360.1
303.15 K, x1 = 0.8707	1255.4	1382.6
303.15 K, x1 = 0.9354	1270.13	1397.1
303.15 K, x1 = 1	1283.29	1410.6
308.15 K, x1 = 0.0956	938.4	1170.2
308.15 K, x1 = 0.1919	999.626	1195.2
308.15 K, x1 = 0.273	1043.86	1223.8
308.15 K, x1 = 0.3698	1089.96	1252.4
308.15 K, x1 = 0.4639	1128.94	1282.6
308.15 K, x1 = 0.5701	1167.43	1309.4
308.15 K, x1 = 0.6787	1201.36	1335.2
308.15 K, x1 = 0.7746	1227.89	1354.9
308.15 K, x1 = 0.8707	1251.38	1369.7
308.15 K, x1 = 0.9354	1265.98	1384.4
308.15 K, x1 = 1	1279.4	1398.2
313.15 K, x1 = 0.0956	933.877	1150.1
313.15 K, x1 = 0.1919	995.525	1177
313.15 K, x1 = 0.273	1039.84	1206.8
313.15 K, x1 = 0.3698	1085.95	1236.5
313.15 K, x1 = 0.4639	1124.72	1267.5
313.15 K, x1 = 0.5701	1163.39	1295.4
313.15 K, x1 = 0.6787	1197.76	1321.8
313.15 K, x1 = 0.7746	1224.59	1341.9
313.15 K, x1 = 0.8707	1248.25	1356.9
313.15 K, x1 = 0.9354	1262.68	1372
313.15 K, x1 = 1	1275.48	1386
318.15 K, x1 = 0.0956	929.385	1130.3
318.15 K, x1 = 0.1919	991.164	1158.8
318.15 K, x1 = 0.273	1035.44	1189.8
318.15 K, x1 = 0.3698	1081.67	1220.7
318.15 K, x1 = 0.4639	1120.61	1252.5
318.15 K, x1 = 0.5701	1159.18	1280.7
318.15 K, x1 = 0.6787	1193.95	1308.5
318.15 K, x1 = 0.7746	1221	1329
318.15 K, x1 = 0.8707	1244.79	1344.4
318.15 K, x1 = 0.9354	1258.89	1359.8
318.15 K, x1 = 1	1271.56	1374.2
323.15 K, x1 = 0.0956	924.824	1110.4
323.15 K, x1 = 0.1919	986.823	1140.8
323.15 K, x1 = 0.273	1031.16	1172.9
323.15 K, x1 = 0.3698	1077.6	1205.1
323.15 K, x1 = 0.4639	1116.43	1237.1
323.15 K, x1 = 0.5701	1155.28	1267
323.15 K, x1 = 0.6787	1190.27	1295.7
323.15 K, x1 = 0.7746	1217.39	1316.4
323.15 K, x1 = 0.8707	1241.1	1332.1
323.15 K, x1 = 0.9354	1255.1	1347.8
323.15 K, x1 = 1	1267.63	1362.5
